These results are taken from patent publication US20130034536A1, “Bile Acid Recycling Inhibitors for Treatment of Pancreatitis” (Lumena Pharmaceuticals, Inc., priority 2011, published 2013).

For this assay, the system named is plasma active GLP-1 levels. The experiment in a line: In vivo effects of ASBT inhibitor SC-435 on plasma active GLP-1 levels in rats (ELISA). The arrangement: species or system Sprague Dawley rats. As for the experimental part: Male Sprague Dawley rats (HSD) 12 weeks old were fasted overnight for 16 hours.
SC-435 (racemate form synthesized at Nanosyn Inc. Menlo Park, Calif.) in 1 ml of saline administrated orally via gavage tube (n=5 per group).
Blood samples (200 μl) taken from the caudal vein with capillary tube at […] after compound administration for testing of plasma active GLP-1 levels (ELISA, Millipore Inc.)
Blood was collected in ice-cooled EDTA vial. Immediately (<30 seconds) after collection DPP-IV inhibitor added (10mkl per 1 ml blood). Samples were centrifuged immediately at 1000×g for 10 minutes in refrigerated centrifuge. Plasma was stored at −70° C. until evaluation.
(An ELISA detects its analyte on a solid surface through an enzyme-linked reagent.)

Consider “1-[4-[4-[(4R,5R)-3,3-dibutyl-7-(dimethylamino)-2,3,4,5-tetrahydro-4-hydroxy-1,1-dioxido-benzothiepin-5-yl]phenoxy]butyl]-4-aza-1-azoniabicyclo[2.2.2]octane methanesulfonate salt [SC-435]”, for which the “time of peak GLP-1 after administration” value (after oral SC-435 administration) lay within 3 to 5 h. For the setting “oral gavage, doses 3, 30 or 100 mg/kg, overnight-fasted male rats, dose-dependent”, the “increase of 5-hour integrated GLP-1 concentrations vs. vehicle” value was 2.5 fold. Besides, the “Peak GLP-1” value (plasma active GLP-1 after oral SC-435) was 30 to 36 pM.
